Here are results for 14 compounds from PubChem BioAssay AID274 (DTP/NCI, 2004).

Several values for one entry are separate records, joined by “and”; a condition that tells them apart may be missing. Equal entries are not always repeated. Toxic doses and inconclusive results are not listed. Peptide text beside a SMILES is read from it. * marks the point of attachment. Trt = c1ccc(C(c2ccccc2)(c2ccccc2)*)cc1; Cbz = O=C(OCc1ccccc1)*

For this experiment, the system named is BDF1 mice, Lewis lung carcinoma iv, survival T/C. In words: NCI In Vivo Anticancer Drug Screen. Data for tumor model Lewis Lung Carcinoma (intravenous) in B6D2F1 (BDF1) mice. As to conditions: endpoint: median survival time, schedule: Q01DX009 (ip), higher = longer survival. Here is the method: The antitumor activity of compounds was measured in mice bearing transplantable tumors. Survival or tumor size were measured and the results are expressed as the measurement made in the treated group (T) divided by the measurement made in the vehicle treated control group (C). The tumor model used in this assay is Lewis Lung Carcinoma (intravenous) in B6D2F1 (BDF1) mice

[1] abbreviates: dose: 12.5 mg/kg/injection, vehicle: saline with Tween-80.
Where [2] appears, read: dose: 25.0 mg/kg/injection, vehicle: saline with Tween-80.
[3] abbreviates: dose: 1.0 mg/kg/injection, vehicle: saline.
The mark [4] stands for this setting: dose: 2.0 mg/kg/injection, vehicle: saline.
The mark [5] stands for this setting: dose: 3.12 mg/kg/injection, vehicle: saline with Tween-80.
The mark [6] stands for this setting: dose: 6.25 mg/kg/injection, vehicle: saline with Tween-80.
Setting [7] is: dose: 50.0 mg/kg/injection, vehicle: Klucel (hydroxypropylcellulose) (HPC).
Where [8] appears, read: dose: 12.5 mg/kg/injection, vehicle: Klucel (hydroxypropylcellulose) (HPC).
[9] abbreviates: dose: 25.0 mg/kg/injection, vehicle: Klucel (hydroxypropylcellulose) (HPC).
[10] abbreviates: dose: 25.0 mg/kg/injection, vehicle: saline.
Where [11] appears, read: dose: 100.0 mg/kg/injection, vehicle: Klucel (hydroxypropylcellulose) (HPC).

With `COC(=O)C(CSC(c1ccccc1)(c1ccccc1)c1ccccc1)NC(=O)C(CC(N)=O)NC(=O)OCc1ccccc1` (stereo not drawn) (Cbz-Asn-Cys(Trt)-OMe; configuration not given here), the T/C (dose: 12.5 mg/kg/injection, vehicle: distilled water + Tween-80) is 103 % of control; the T/C (dose: 25.0 mg/kg/injection, vehicle: distilled water + Tween-80) was 101 % of control; the T/C (dose: 50.0 mg/kg/injection, vehicle: distilled water + Tween-80) was 89 % of control; the T/C (dose: 100.0 mg/kg/injection, vehicle: distilled water + Tween-80) was 100 % of control; the T/C (dose: 200.0 mg/kg/injection, vehicle: distilled water + Tween-80) is 105 % of control; the T/C (dose: 400.0 mg/kg/injection, vehicle: distilled water + Tween-80) was 98 % of control.
As for `CN1C(=O)C(=Cc2ccc(O)cc2)C(=O)N(C)C1=O`, the T/C was 101 % of control under setting [1]; 105 % of control under setting [2]; 106 % of control (dose: 50.0 mg/kg/injection, vehicle: saline with Tween-80); 99 % of control (dose: 100.0 mg/kg/injection, vehicle: saline with Tween-80); 101 % of control (dose: 200.0 mg/kg/injection, vehicle: saline with Tween-80); 96 % of control (dose: 400.0 mg/kg/injection, vehicle: saline with Tween-80).
In the case of `Cc1c(N)nc([C@H](CC(N)=O)NC[C@H](N)C(N)=O)nc1C(=O)N[C@H](C(=O)N[C@H](C)[C@@H](O)CC(=O)N[C@H](C(=O)NC(O[C@@H]1O[C@@H](C)[C@@H](N)[C@@H](O)[C@H]1O)C(O)c1nc(-c2nc(C(=O)NCCCCN)cs2)cs1)[C@@H](C)O)[C@@H](O[C@@H]1O[C@@H](CO)[C@@H](O)[C@H](O)[C@@H]1O[C@H]1O[C@H](CO)[C@@H](O)[C@H](OC(N)=O)[C@@H]1O)c1c[nH]cn1` (some centres not stated), the T/C under setting [3] was 109 % of control and the T/C under setting [4] was 114 % of control.
For the compound `COc1cccc2c1C(=O)c1c(O)c3c(c(O)c1C2=O)CC(O)(/C(C)=N/NC(=O)CCC(=O)N/N=C(\C)C1(O)Cc2c(O)c4c(c(O)c2C(OC2CC(N)C(O)C(C)O2)C1)C(=O)c1c(OC)cccc1C4=O)CC3OC1CC(N)C(O)C(C)O1` (configuration not stated), the T/C is, setting by setting: (dose: 1.5 mg/kg/injection, vehicle: water) 96 % of control; (dose: 3.0 mg/kg/injection, vehicle: water) 108 % of control; (dose: 6.0 mg/kg/injection, vehicle: water) 101 % of control; (dose: 12.0 mg/kg/injection, vehicle: water) 123 % of control.
In the case of `NC(Cc1ccc(N(CCCl)CCCl)cc1)C(=O)O` (configuration not stated), the T/C runs as follows: (dose: 0.5 mg/kg/injection, vehicle: Klucel (hydroxypropylcellulose) (HPC)) 94 % of control; (dose: 1.0 mg/kg/injection, vehicle: Klucel (hydroxypropylcellulose) (HPC)) 97 % of control; (dose: 2.0 mg/kg/injection, vehicle: Klucel (hydroxypropylcellulose) (HPC)) 122 % of control.
For `COC(C(=O)C(O)C(C)O)C1CC2C=C3C=C(OC4CC(OC5CC(O)C(OC)C(C)O5)C(OC(C)=O)C(C)O4)C(C)C(=O)C3=C(O)C2=C(O)C1OC1CC(OC2CC(OC3CC(C)(O)C(O)C(C)O3)C(O)C(C)O2)C(O)C(C)O1` (configuration not stated), the T/C is, setting by setting: (dose: 0.06 mg/kg/injection, vehicle: saline with Tween-80) 96 % of control; (dose: 0.13 mg/kg/injection, vehicle: saline with Tween-80) 101 % of control; (dose: 0.25 mg/kg/injection, vehicle: saline with Tween-80) 114 % of control; (dose: 0.5 mg/kg/injection, vehicle: saline with Tween-80) 104 % of control; (dose: 1.0 mg/kg/injection, vehicle: saline with Tween-80) 101 % of control; (dose: 2.0 mg/kg/injection, vehicle: saline with Tween-80) 92 % of control.
With `CC1OC(O[C@H]2/C=C/C=C/C=C/C=C/C=C/C=C/C=C/[C@H](C)[C@@H](O)[C@@H](C)[C@H](C)OC(=O)C[C@H](O)C[C@H](O)CC[C@@H](O)[C@H](O)C[C@H](O)C[C@]3(O)C[C@H](O)[C@@H](C(=O)O)[C@H](C2)O3)C(O)C(N)C1O` (some centres not stated), the T/C was 105 % of control under setting [3]; 109 % of control under setting [4]; 109 % of control (dose: 8.0 mg/kg/injection, vehicle: saline); 124 % of control (dose: 16.0 mg/kg/injection, vehicle: saline).
Consider `Cc1cc(NCCCCCCCNc2cc(C)nc3cc(N)ccc23)c2ccc(N)cc2n1`, for which the T/C is 100 % of control (dose: 0.78 mg/kg/injection, vehicle: saline with Tween-80); 102 % of control (dose: 1.56 mg/kg/injection, vehicle: saline with Tween-80); 102 % of control under setting [5]; 110 % of control under setting [6]; 96 % of control under setting [1].
Take `Nc1nc(SCc2ccccc2)c2ncn(C3OC(CO)CC3O)c2n1` (configuration not stated): the T/C under setting [7] was 109 % of control.
Consider `N=C(N)SCc1cccc2c(=O)cc(-c3ccccc3)oc12`, for which the T/C is 107 % of control under setting [8]; 104 % of control under setting [9]; 106 % of control under setting [10]; 107 % of control under setting [7]; 94 % of control (dose: 50.0 mg/kg/injection, vehicle: saline); 100 % of control (dose: 100.0 mg/kg/injection, vehicle: saline). Also, the T/C (dose: 400.0 mg/kg/injection, vehicle: saline) is 89 % of control.
As for `CCOC(=O)C1C2OC(=O)C(C(=O)C2CN(CCCl)CCCl)C1C1CC=C(CC2=CCC(C3C4C(=O)OC(C(CN(CCCl)CCCl)C4=O)C3C(=O)OCC)CC2)CC1` (configuration not stated), the T/C reads like this: under setting [8], 104 % of control; under setting [9], 104 % of control; under setting [7], 102 % of control; under setting [11], 111 % of control.
Consider `COc1cc(OC)c(OC)cc1/C=C\c1ccnc2ccccc12`, for which the T/C reads like this: under setting [9], 113 % of control; under setting [7], 105 % of control; under setting [11], 100 % of control; (dose: 200.0 mg/kg/injection, vehicle: Klucel (hydroxypropylcellulose) (HPC)) 107 % of control.
Regarding `C=C1C(C)C2C(Cc3ccccc3)NC(=O)C23C(OC(C)=O)/C=C/C(C)(O)CC(C)C/C=C/C3C1O` (configuration not stated), the T/C was 93 % of control (dose: 0.37 mg/kg/injection, vehicle: Klucel (hydroxypropylcellulose) (HPC)); 107 % of control (dose: 0.38 mg/kg/injection, vehicle: Klucel (hydroxypropylcellulose) (HPC)); 102 % of control (dose: 0.75 mg/kg/injection, vehicle: Klucel (hydroxypropylcellulose) (HPC)); 96 % of control and 105 % of control (dose: 1.5 mg/kg/injection, vehicle: Klucel (hydroxypropylcellulose) (HPC)); 104 % of control and 106 % of control (dose: 3.0 mg/kg/injection, vehicle: Klucel (hydroxypropylcellulose) (HPC)); 101 % of control and 110 % of control (dose: 6.0 mg/kg/injection, vehicle: Klucel (hydroxypropylcellulose) (HPC)). For the same compound, the T/C (dose: 12.0 mg/kg/injection, vehicle: Klucel (hydroxypropylcellulose) (HPC)) is 109 % of control.
Turning to `COc1cc2cc[n+](C)c(Cc3ccccc3)c2cc1OC`, the T/C under setting [5] is 285 % of control; the T/C (dose: 3.12 mg/kg/injection, vehicle: saline) is 106 % of control; the T/C under setting [6] was 91 % of control; the T/C (dose: 6.25 mg/kg/injection, vehicle: saline) was 108 % of control; the T/C under setting [1] was 161 % of control; the T/C (dose: 12.5 mg/kg/injection, vehicle: saline) was 116 % of control. Also, the T/C is 95 % of control under setting [2] and 120 % of control under setting [10].
